Experimental findings from US20120309739A1, “AKT / PKB INHIBITORS” (ALMAC DISCOVERY LIMITED, priority 2009, published 2012) are described below.

For one assay, the target named is T1, AKT1 (Homo sapiens, UniProt P31749).
T1 construct: purchased SignalChem
Kind of assay: AKT Kinase Assay (IMAP fluorescent polarisation) vs AKT1. The following applies: activated AKT1, FAM Crosstide substrate. It is filed as biochemical. Put shortly:
(§1)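 IMAP fluorescence-polarisation read-out (485/528 nm) of 5′FAM-Crosstide phosphorylation; IC50 fitted by non-linear regression from % inhibition against vehicle. Fourteen-point half-log compound dilutions sat 45 min at room temperature with activated isoform at linear-range amount. ATP and substrate followed for 1 h, then a 1 h binding-reagent stop.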

Another assay addresses T2, AKT2 (Homo sapiens, UniProt P31751).
T2 construct: purchased SignalChem
Description: AKT Kinase Assay (IMAP fluorescent polarisation) vs AKT2. In kind it is biochemical. The conditions noted are these: activated AKT2, FAM Crosstide substrate. The procedure, abridged: as §1

Another assay addresses T3, AKT3 (Homo sapiens, UniProt Q9Y243).
T3 construct: purchased SignalChem
Description: AKT Kinase Assay (IMAP fluorescent polarisation) vs AKT3. It is filed as biochemical. The conditions noted are these: activated AKT3, FAM Crosstide substrate. Put shortly:
as §1

Another assay deals with AKT phosphorylation. Description: Phosphorylation status of AKT/PI3K pathway via western blotting. In kind it is cell-based. The following applies: for 48 h at 10 μM. The source says:
Analysis of Compound Effects on AKT Signalling Pathways
Phosphorylation status of various members of the AKT/PI3K pathway were investigated via western blotting.
Materials Required for this Assay
20× Running buffer (Invitrogen); Rainbow marker ladder (GE Healthcare); Reducing buffer (Invitrogen); 20× Transfer buffer (Invitrogen); 4-12% Bis-Tris Gels (Invitrogen); Filter paper (Whatman); Nitrocellulose (Amersham); ECL plus detection reagents (GE Healthcare); Radiographic film (Kodak); Biorad Protein determination reagent (Biorad); AKT pathway signalling antibodies (Cell Signalling)
LnCaP and PC3 cell lines were washed, detached and re-suspended in fresh medium. They were seeded in 90 mm^2 dishes and incubated overnight ([…]/5% CO2) to allow adherence. […]
The medium was removed and the cells placed on ice and washed in PBS. […] The resultant supernatant was assayed for protein content using the Bradford method (Biorad) and equal quantities of protein calculated and heated in sample reducing buffer to 95° C. for ten minutes. […]
The membranes were used to determine difference in total AKT, pSer473 AKT, pGSK3β and total GSK3β (all sourced from Cell Signalling). […] The membranes were washed three times in PBS and incubated with the respective secondary antibodies (Sigma Aldrich) for two hours and the proteins were detected using ECL plus detection reagents (GE Healthcare).
On the technique in general: A western blot detects proteins with antibodies after separation by electrophoresis.

T3 sequence (Q9Y243 whole entry): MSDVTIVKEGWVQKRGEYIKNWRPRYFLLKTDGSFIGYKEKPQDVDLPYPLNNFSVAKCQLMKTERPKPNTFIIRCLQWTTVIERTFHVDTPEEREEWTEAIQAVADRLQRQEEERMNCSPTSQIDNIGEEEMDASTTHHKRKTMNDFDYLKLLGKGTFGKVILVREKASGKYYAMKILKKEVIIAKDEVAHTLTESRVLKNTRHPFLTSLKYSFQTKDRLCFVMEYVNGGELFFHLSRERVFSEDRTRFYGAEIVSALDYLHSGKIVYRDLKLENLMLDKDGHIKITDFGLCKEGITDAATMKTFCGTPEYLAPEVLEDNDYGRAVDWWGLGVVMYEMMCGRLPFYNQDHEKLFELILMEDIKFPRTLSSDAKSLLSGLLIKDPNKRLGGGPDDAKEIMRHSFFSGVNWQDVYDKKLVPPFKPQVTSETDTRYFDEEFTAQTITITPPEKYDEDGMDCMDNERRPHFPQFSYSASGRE
T1 sequence (P31749 whole entry): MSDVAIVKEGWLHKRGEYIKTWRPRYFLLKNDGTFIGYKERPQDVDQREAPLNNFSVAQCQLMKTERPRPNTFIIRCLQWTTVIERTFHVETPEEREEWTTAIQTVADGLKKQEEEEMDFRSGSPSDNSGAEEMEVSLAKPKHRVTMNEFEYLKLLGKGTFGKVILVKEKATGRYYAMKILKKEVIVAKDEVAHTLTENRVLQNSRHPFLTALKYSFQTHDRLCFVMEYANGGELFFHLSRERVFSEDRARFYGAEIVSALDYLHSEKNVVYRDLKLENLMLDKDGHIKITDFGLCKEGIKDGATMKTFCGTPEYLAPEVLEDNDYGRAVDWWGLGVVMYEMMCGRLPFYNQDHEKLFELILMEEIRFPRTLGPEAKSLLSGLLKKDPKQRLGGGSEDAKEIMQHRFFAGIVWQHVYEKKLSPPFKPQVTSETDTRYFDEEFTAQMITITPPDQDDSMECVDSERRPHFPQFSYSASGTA
T2 sequence (P31751 whole entry): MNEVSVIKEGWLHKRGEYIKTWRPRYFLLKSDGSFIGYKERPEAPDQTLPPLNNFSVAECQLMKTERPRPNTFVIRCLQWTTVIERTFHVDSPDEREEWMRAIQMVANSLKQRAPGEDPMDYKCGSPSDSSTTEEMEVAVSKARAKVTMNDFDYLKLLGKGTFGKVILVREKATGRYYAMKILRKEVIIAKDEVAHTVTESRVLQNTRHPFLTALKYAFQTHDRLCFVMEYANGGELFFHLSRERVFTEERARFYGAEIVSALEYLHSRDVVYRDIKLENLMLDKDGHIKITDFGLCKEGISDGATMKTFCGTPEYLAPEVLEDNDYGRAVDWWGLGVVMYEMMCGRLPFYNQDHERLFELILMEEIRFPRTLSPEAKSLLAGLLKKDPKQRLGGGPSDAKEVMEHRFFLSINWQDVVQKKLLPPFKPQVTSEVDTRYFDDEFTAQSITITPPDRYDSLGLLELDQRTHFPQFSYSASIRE

For `CSc1nc2oc(-c3ccc(C4(N)CCC4)cc3)c(-c3ccccc3)c2c(=O)[nH]1` [Example 15, 6-(4-(1-Aminocyclobutyl)phenyl)-2-(methylthio)-5-phenylfuro[2,3-d]pyrimidin-4(3H)-one], the IC50 (in general, the concentration that inhibits the measured activity by half) at AKT1 lay within 100 to 1000 nM; on AKT2, 100 to 1000 nM; at AKT3 it was 1000 to 10000 nM. Moreover, in the assay with AKT phosphorylation, the “inhibition of AKT phosphorylation” value is “inhibition of AKT phosphorylation”.
